What was measured:
[1] = test system: adult rat dorsal root ganglia (DRG) neurons; test: Ex vivo CGRP release assay in adult rat sensory neuronal cultures; assay type: cell-based; conditions: 1 μM; for capsaicin-evoked CGRP release: 30 nM capsaicin; for low-pH-evoked CGRP release: buffer pH adjusted to 6.0
Protocol: For release experiments, the work was approved by the Animal Care and Use Committee at Indiana University School of Medicine, Indianapolis, IN. Adult rat sensory neuronal cultures were prepared as previously described (Burkey, Hingtgen, and Vasko, Methods in molecular medicine 99, 189, 2004; Kelley et al., PloS one 9, e106485, 2014). Cells were maintained for 10-12 days in F-12 media (Invitrogen, Carlsbad, CA) supplemented with 10% horse serum, 2 mM glutamine, 100 μg/ml normocin™, 50 μg/ml penicillin, 50 μg/ml streptomycin, 50 μM 5-fluoro-2′-deoxyuridine (Invitrogen), 150 μM uridine, and 30 ng/ml of NGF (Harlan Bioproducts for Science, Inc. Indianapolis, IN) in 3% CO2 at 37° C. On the day of the release experiments, cultures were washed with HEPES buffer (25 mM HEPES, 135 mM NaCl, 3.5 mM KCl, 2.5 mM CaCl2, 1 mM MgCl2, 3.3 mM D-glucose, and 0.1% bovine serum albumin, pH 7.4 and maintained at 37° C. Cultures were then incubated with 0.4 ml of the same buffer in the absence or presence of drugs. Basal release was determined by exposing the cells to HEPES buffer alone for 10 min, then to buffer in the presence of mediators for 10 min to ascertain if the compounds stimulated release. Cultures were then exposed to buffer containing 30 nM capsaicin or buffer with the pH adjusted to 6.0 in the absence or presence of mediators. Cells then were re-exposed to HEPES buffer without drugs for a 10 min incubation to reestablish basal release. After each incubation, the buffer was removed to measure the amount of CGRP using radioimmunoassay as previously described (Chen et al., Peptides 17, 31, 1996). At the end of each release experiment, cells were hypotonically lysed by exposing the cultures to 0.1 M HCl for 10 min and an aliquot taken to measure total CGRP content in the cultures using radioimmunoassay. […] Release data are presented in fmol/well of cell/10 min from three independent experiments from separate harvests. Statistical analysis was performed using ANOVA with Tukey's post hoc test.

female mice (C57BL/6J) = test: Pruriceptive (itch) behavior, scratching bouts after intradermal injection into nape of neck; assay type: in vivo, mouse; conditions: for onset of scratching responses (significantly greater than vehicle) / time of maximum scratching response: 9K-12,13E-LA 100 μg, histamine 50 μg; for itch-related scratching behavior compared to vehicle: 100 μg (mixture 100 μg of each) intradermal, n=6-8 per group, 30 minutes; for scratching bouts compared to vehicle, pilot testing: n=3 per group, first 30 minutes after intradermal injection
Protocol: Hydroxy- and keto-epoxide derivatives of LA (100 μg) or histamine (50 μg) were injected intra-dermally into the nape of neck of the female mice (C57BL/6J from Jackson Laboratory). LA derivatives (9-keto-12,13-epoxy-(10E)-octadecenoate or 13-keto-9,10-epoxy-(11E)-octadecenoate) were injected independently, and in combination (9-keto-12,13-epoxy-(10E)-octadecenoate plus 13-keto-9,10-epoxy-(11E)-octadecenoate (100 μg of each)). Pruriceptive behavior was quantified as the number of scratching bouts assessed over 30 minutes, as previously described (Mishra and Hoon, Science 340, 968, 2013).

[2] = Incubation under esterification conditions (glycerol on silica gel, 3 days), LC-MS; assay type: physicochemical; conditions: for internal lactonization: under the esterification conditions; for esterification with glycerol: free acid in ether with glycerol-coated silica gel, 3 days
Protocol: • A: 10 mM NH4OAc, pH 7.4 • B: Acetonitrile+0.1% formic acid • 0-1.50 min: 5% B • 1.50-2 min: 5-90% B • 2-10 min: 90% B • 10.01-15 min: 5% B • DAD1 254 nm • DAD2 215 nm • Agilent Zorbax XDB-C18 5 μm C18 50×2.0 mm • 0.4 ml/min MS Parameters: Agilent 6120 with Electrospray Ionization • Drying gas flow: 11.0 L/min • Nebulizer pressure: 40 psig • Drying gas temperature: 350 C • Positive capillary voltage: 4000 V • Negative capillary voltage: 3000 V
Approximately 30 mg of silica gel was added to 25 mg of glycerol, and it was then vortexed to coat all of the silica with glycerol, until the admixture was free-flowing. Between 5-10 mg of this material was added to a solution of the free acid in ether, and it was vortexed briefly. The reaction was left for 3 days, then filtered and evaporated under nitrogen. The residue was redissolved in ethanol and analyzed by LC-MS, in both positive and negative modes.

[3] = test system: murine trigeminal sensory neurons; test: Ca2+ responses in cultured trigeminal sensory neurons; assay type: cell-based, mouse; conditions: FIG. 7B
Protocol: Additionally, murine trigeminal sensory neurons were isolated and cultured in vitro. Fatty acid derivatives were applied to the cultured neurons and any resulting Ca^2+ response was measured in a blinded manner. The assayed compounds include: 11H-12,13E-LA (Compound 1), 11K-12,13E-LA (Compound 2), 11H-9,10E-LA (Compound 3), and 11K-9,10E-LA (Compound 4).

[4] = test system: tumor necrosis factor (TNF)-alpha secretion, human PBMCs; test: PBMC cytokine secretion (ELISA): TNF-alpha; assay type: cell-based; conditions: 100 μM, 24 hours
Protocol: (§1) Freshly isolated human PBMCs were pre-incubated (FIGS. 11A and 11C) or not (FIGS. 11B and 11D) with LPS, and then incubated with ferulic acid (“FA,” 100 μM) and 11H-12,13E-LA, 11K-12,13E-LA, PBS, or LPS alone for 24 hours (blinded). Then, the medium concentration of TNF-alpha (FIGS. 11A and 11B) or […] (FIGS. 11C and 11D) was measured using enzyme-linked immunosorbent assay.

[5] = test system: freshly isolated human PBMCs; test: ApoA1 cholesterol efflux screen in freshly isolated PBMCs; assay type: cell-based; conditions: 50 μM
[6] = test system: interleukin (IL)-1, human PBMCs; test: PBMC cytokine secretion (ELISA): IL-1; assay type: cell-based; conditions: 100 μM; with or without LPS; 24 hours
Protocol: as §1

human THP-1 cells = test: ApoA1 cholesterol efflux screen in THP-1 cells; assay type: cell-based; conditions: 50 μM; THP-1 cells incubated with ApoA1
Protocol: Human THP-1 cells were incubated with ApoA1 in the presence of linoleic acid or several different fatty acid derivatives (50 μM) in a blinded manner, and resulting cholesterol efflux was measured (FIG. 9) as previously described (PMID: 26879139).

[7] = test system: normal mice or a mast cell knock-out mouse; test: Itch-related scratching in normal and mast cell knock-out mice; assay type: in vivo; conditions: 100 μg intradermal; 30 minutes
Protocol: The fatty acid derivative 9K-12,13E-LA (100 μg) was injected intra-dermally into the nape of neck of normal mice or a mast cell knock-out mouse (FIG. 8) in a blinded manner. Pruriceptive behavior was quantified as the number of scratching bouts assessed over 30 minutes, as previously described (Mishra and Hoon, Science 340, 968, 2013).

male Sprague-Dawley rats = test: Nociceptive (pain) behavior after intradermal hindpaw injection; assay type: in vivo, rat
Protocol: 11-hydroxy-12,13-trans-epoxy-(9Z)-octadecenoate (30 μg) was injected intradermally into the hindpaw of male Sprague-Dawley rats. Baseline measurements were taken for all tests prior to injection. A-delta and C-fiber mediated hindpaw withdrawal responses were measured as previously described (Mitchell et al., Pain 155, 733, 2014). Briefly, by stimulation of the plantar surface of the paw with a 100 ms laser pulse, producing a rapid withdrawal response. Laser pulses were delivered by an infrared diode laser (LASS-10 M; Lasmed, Mountain View, CA, USA) and calibrated to 3500 mA at 0.5 mm diameter, and delivered from 1 cm distance, C-fiber mediated responses were measured by delivery of a slow temperature ramp to the plantar surface of the hindpaw, with stimulus termination by voluntary withdrawal of the paw. The laser stimulus was adjusted to result in an approximately 10 second withdrawal latency (1000 mA, 13 cm distance).

Q: Which “capsaicin-evoked CGRP release” value [1] does the source give for CCCCCC(O)/C=C/C1OC1CCCCCCCC(=O)O (stereo not drawn) [13H-9,10E-LA, 13-hydroxy(H)-9,10-trans-epoxy-(E)-octadecenoate] here?
A: The value was “had no effect”.

Q: And the “low-pH-evoked CGRP release” value [1]?
A: The value was “significantly augmented”.

Q: Which “onset of scratching responses (significantly greater than vehicle)” value (female mice (C57BL/6J)) does the source give for NCCc1c[nH]cn1 [histamine, reference compound] here?
A: The value was at most 5 min.

Q: And the “time of maximum scratching response” value (female mice (C57BL/6J))?
A: The value was 5 to 10 min.

Q: For CC/C=C\C/C=C\C/C=C\C/C=C\C/C=C\C=C\C(O)CCC(=O)O (centres unmarked) [4-hydroxy-DHA, reference compound], which internal lactonization [2] is on record?
A: The internal lactonization was “rapidly undergoes internal lactonization”.

Q: Which “capsaicin-evoked CGRP release” value [1] does the source give for CCCCC/C=C\C(O)C1OC1CCCCCCCC(=O)O (stereo not drawn) [11H-9,10E-LA, 11-hydroxy(H)-9,10-trans-epoxy-(E)-octadecenoate] here?
A: The value was “significantly augmented”.

Q: And the “low-pH-evoked CGRP release” value [1]?
A: The value was “significantly augmented”.

Q: And the “number of trigeminal cells responding, concentration-response” value [3]?
A: The value was “increase in the number of cells responding”.

Q: Which esterification with glycerol [2] does the source give for CC/C=C\C/C=C\C/C=C\C/C=C\C/C=C\C=C\C(O)CC(C)C(=O)O (centres unmarked) [2-methyl-4-hydroxy-DHA] here?
A: The esterification with glycerol was “resistant to glycerol esterification”.

Q: And the internal lactonization [2]?
A: Its internal lactonization is “competitive lactonization”.

Q: Which “capsaicin-evoked CGRP release” value [1] does the source give for CCCCCC1OC1/C=C/C(O)CCCCCCCC(=O)O (stereo not drawn) [9H-12,13E-LA, 9-hydroxy(H)-12,13-trans-epoxy-(E)-octadecenoate] here?
A: The value was “Neither 9H-12,13E-LA, nor any of the tested keto-epoxy-octadecenoates, augmented”.

Q: And the “low-pH-evoked CGRP release” value [1]?
A: Its value is “Neither 9H-12,13E-LA, nor any of the tested keto-epoxy-octadecenoates, augmented”.

Q: Which “LPS-induced TNF-alpha secretion” value ([4]; LPS pre-incubation) does the source give for CCCCCC1OC1C(=O)/C=C\CCCCCCCC(=O)O (stereo not drawn) [11K-12,13E-LA, 11-keto(K)-12,13-trans-epoxy-(E)-octadecenoate] here?
A: The value was “inhibits”.

Q: And the “native TNF-alpha secretion” value ([4]; no LPS)?
A: Its value is “inhibits”.

Q: What about the “ApoA1-mediated monocyte cholesterol efflux” value [5] of the same compound?
A: The value was “inhibited”.

Q: And the IL-1 secretion [6]?
A: Its IL-1 secretion is “has no effect”.

Q: What about the “ApoA1-mediated monocyte cholesterol efflux” value (human THP-1 cells) of the same compound?
A: The value was “inhibited”.

Q: For “9-hydroxy-octadecadienoic acid [reference compound]”, which “ApoA1-mediated monocyte cholesterol efflux” value (human THP-1 cells) is on record?
A: Its value is “increased”.

Q: Which esterification with glycerol [2] does the source give for CCCCCC(O)/C=C/C1OC1CCCCCCC(C)(C)C(=O)O (stereo not drawn) [2,2-dimethyl-13-hydroxy-9,10-trans-epoxy-(11E)-octadecenoic acid] here?
A: Its esterification with glycerol is “resistant to esterification”.

Q: For CCCCCC1OC1/C=C/C(=O)CCCCCCCC(=O)O (stereo not drawn) [9K-12,13E-LA, 9-keto(K)-12,13-trans-epoxy-(E)-octadecenoate], which “itch-related scratching behavior compared to vehicle” value (female mice (C57BL/6J)) is on record?
A: Its value is “induced itch-related scratching behavior”.

Q: What about the “onset of scratching responses (significantly greater than vehicle)” value (female mice (C57BL/6J)) of the same compound?
A: Its value is “slower onset”.

Q: And the “time of maximum scratching response” value (female mice (C57BL/6J))?
A: Its value is 10 to 15 min.

Q: And the “scratching bouts compared to vehicle, pilot testing” value (female mice (C57BL/6J))?
A: Its value is “appeared to increase scratching bouts”.

Q: And the “scratching responses in mast cell knockout mice” value [7]?
A: Its value is “increased scratching responses”.

Q: And the “scratching responses in wild type mice” value [7]?
A: The value was “increased scratching responses”.

Q: For CC/C=C\C/C=C\C/C=C\C/C=C\C/C=C\C=C\C(O)CC(C)(C)C(=O)O (centres unmarked) [2,2-dimethyl-4-hydroxy-DHA], which esterification with glycerol [2] is on record?
A: The esterification with glycerol was “resistant to esterification, including internal lactonization”.

Q: What about the internal lactonization [2] of the same compound?
A: Its internal lactonization is “did not lactonize”.

Q: Which “direct stimulation of CGRP release” value ([1]; neutral pH) does the source give for CCCCC[C@H](O)/C=C/[C@H]1[C@H](O)CC(=O)[C@@H]1C/C=C\CCCC(=O)O [PGE2, prostaglandin E2, reference compound] here?
A: Its value is “neither PGE2 nor any of the other tested compounds directly stimulated”.

Q: What about the “capsaicin-evoked CGRP release” value [1] of the same compound?
A: Its value is “significantly augmented”.

Q: What about the “low-pH-evoked CGRP release” value [1] of the same compound?
A: The value was “significantly augmented”.

Q: What about the “proportion of withdrawal responses following Aδ fiber laser stimulation” value (male Sprague-Dawley rats; after intradermal hindpaw injection) of the same compound?
A: Its value is “significantly enhanced”.

Q: What about the “decrease of C-fiber withdrawal latencies” value (male Sprague-Dawley rats; after intradermal hindpaw injection (11H-12,13E-LA 30 μg), versus vehicle) of the same compound?
A: The value was 46%.

Q: Which results are given for CCCCCC(=O)/C=C/C1OC1CCCCCCCC(=O)O (stereo not drawn) [13K-9,10E-LA, 13-keto(K)-9,10-trans-epoxy-(E)-octadecenoate]?
A: itch-related scratching behavior compared to vehicle (female mice (C57BL/6J)): no response; scratching bouts compared to vehicle, pilot testing (female mice (C57BL/6J)): appeared to increase scratching bouts

Q: For CCCCC/C=C\C/C=C\CCCCCCCC(=O)O [Linoleic acid, reference compound], which “ApoA1-mediated monocyte cholesterol efflux” value (human THP-1 cells) is on record?
A: The value was “increased cholesterol efflux”.
